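Step 1: Grow cells in 96-well plates. Step 2: Expose to compound for 48 hours at 5 concentrations. Step 3: Interpolate endpoints linearly; if unreached, use highest concentration. GI50 is the concentration that inhibits growth by half. At the TGI there is no net growth.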
Tests used:
Test in all cases: NCI anticancer screen, dose series, 48 h
HOP-92 NSCLC = system: HOP-92 NSCLC
HL-60(TB) leukemia = system: HL-60(TB) leukemia
HOP-62 NSCLC = system: HOP-62 NSCLC
MCF7 breast = system: MCF7 breast
SNB-19 CNS = system: SNB-19 CNS
SK-OV-3 ovarian = system: SK-OV-3 ovarian
NCI-H226 lung = system: NCI-H226 lung
IGROV1 ovarian = system: IGROV1 ovarian
SF-539 CNS = system: SF-539 CNS
KM12 colon = system: KM12 colon

Row | Structure (SMILES) | GI50 (HOP-92 NSCLC) | TGI (HOP-92 NSCLC) | GI50 (HL-60(TB) leukemia) | TGI (HL-60(TB) leukemia) | GI50 (HOP-62 NSCLC) | TGI (HOP-62 NSCLC) | GI50 (MCF7 breast) | TGI (MCF7 breast) | GI50 (SNB-19 CNS) | TGI (SNB-19 CNS) | GI50 (SK-OV-3 ovarian) | TGI (SK-OV-3 ovarian) | GI50 (NCI-H226 lung) | TGI (NCI-H226 lung) | GI50 (IGROV1 ovarian) | TGI (IGROV1 ovarian) | GI50 (SF-539 CNS) | TGI (SF-539 CNS) | GI50 (KM12 colon) | TGI (KM12 colon)
1 | C/C(=C\c1ccn(-c2ccc(N)c(C(F)(F)F)c2)n1)[C@@H]1C[C@@H]2O[C@]2(C)CCC[C@H](C)[C@H](O)[C@@H](C)C(=O)C(C)(C)[C@@H](O)CC(=O)O1 | 0.0161 µM | 23.9 µM | 0.0086 µM | 0.203 µM | 0.0212 µM | > 20.3 µM | 0.00385 µM | > 16 µM | 0.0287 µM | > 32.5 µM | 0.103 µM | > 27.9 µM | 1.99 µM | > 32.5 µM | 0.0773 µM | > 32.5 µM | 0.00984 µM | 0.593 µM | 0.00869 µM | > 32.5 µM
2 | CCCCCCCCCCCCCOC(=O)c1c(C)[nH]c(/C=C2\N=C(c3ccc[nH]3)C=C2OC)c1C | 0.0698 µM | 0.497 µM | 0.0182 µM |  | 0.801 µM | 14.2 µM | 0.0248 µM | > 100 µM | 5.37 µM | > 87.6 µM | 2.8 µM | 37.1 µM | 1.02 µM | > 57.4 µM | 0.122 µM | 30.1 µM | 0.182 µM | > 26.9 µM | < 0.0167 µM | > 100 µM
3 | COc1ccc(C(=O)/C=C/c2cc3ccccc3[nH]c2=O)cc1 | 17 µM | 37.3 µM | 21.9 µM | > 100 µM | 20.5 µM | 42.6 µM | 18.8 µM | > 96.1 µM | 23.2 µM | > 57.5 µM | 22.7 µM | > 91.6 µM | 22.1 µM | > 100 µM | 28.6 µM | 97.6 µM | 18.7 µM | 39.8 µM | 16.5 µM | 28.7 µM
4 | O=C(O)C(=O)Cc1ccc2c(c1)OCO2 |  | > 100 µM |  | > 100 µM |  | > 100 µM |  | > 100 µM |  | > 100 µM |  | > 100 µM |  | > 100 µM |  | > 100 µM |  | > 100 µM |  | > 100 µM
5 | O=S(=O)(NCCNc1cc(-c2cn(-c3ccccc3)nc2-c2cccc(O)c2)ccn1)c1ccc(C(F)(F)F)cc1 | 1.97 µM | 6.39 µM | 2.17 µM | 4.77 µM | 2.56 µM | 9.14 µM | 2.29 µM | 9.78 µM | 3.79 µM | 17.4 µM | 3.79 µM | 16.2 µM | 5.36 µM | 30.9 µM | 2.36 µM | 5.89 µM | 1.59 µM | 3.48 µM | 2.62 µM | 7.98 µM
6 | CCN(Cc1ccc(F)cc1)c1ccc(CO)c(Cl)c1 | 0.956 µM | 13.1 µM | 3.63 µM | 23.3 µM | 0.576 µM | 25.1 µM | 0.155 µM | 7.05 µM | 19.6 µM | > 59.8 µM | 3.86 µM | 25.2 µM | 0.0306 µM | 0.116 µM | 0.0776 µM | 0.605 µM | 15.1 µM | 35.1 µM | 16.3 µM | 40.3 µM
7 | C#C[C@@]1(O)[C@@H](CO)O[C@@H](n2cc(Cl)c3c(N)ncnc32)[C@@H]1O | 0.454 µM | 3.53 µM | 0.0341 µM | 0.197 µM | 0.254 µM | 1.97 µM | 0.0264 µM | 1.1 µM | 0.021 µM | 0.294 µM | 0.143 µM | 0.517 µM | 0.508 µM |  | 0.145 µM | 0.475 µM | 0.324 µM | 1.45 µM | 0.142 µM | > 100 µM
8 | CCC1CCc2nc3sc(C(=O)Nc4ccccc4F)c(N)c3cc2C1 (configuration not stated) | 4 µM | > 100 µM | 0.302 µM | 0.978 µM | > 100 µM | > 100 µM | 0.318 µM | > 100 µM | 53.8 µM | > 100 µM | > 100 µM | > 100 µM | > 100 µM | > 100 µM | > 100 µM | > 100 µM |  | > 100 µM | 0.643 µM | > 100 µM
9 | COc1cccc(-c2nn(-c3ccccc3)cc2-c2ccnc(NCCNS(=O)(=O)c3ccc(C(F)(F)F)cc3)c2)c1 | 2.12 µM | 6.83 µM | 1.97 µM | 5.63 µM | 4.16 µM | 43.6 µM | 3.15 µM | 39.1 µM | 4.62 µM | > 100 µM | 3 µM | 11.1 µM | 5.77 µM | > 100 µM | 4.19 µM | > 100 µM | 2.48 µM | 6.28 µM | 3.02 µM | 16.7 µM
10 | Cc1cc(Cl)ccc1Nc1sc(C(=O)c2cc3cc(Cl)ccc3o2)c(N)c1C#N |  | > 100 µM |  | > 100 µM |  | > 37.6 µM |  | 59.6 µM |  | 25.1 µM |  | 57 µM |  | > 100 µM |  | > 100 µM |  | > 66 µM |  | > 100 µM
11 | Cc1cc(NC(=O)c2ccc(NS(=O)(=O)CCO)cc2N2CCC3(CC2)CC3)nc(N2CCC(F)(F)CC2)n1 | 14.5 µM | 29.6 µM | 19.4 µM | > 57.1 µM | 13.7 µM | 30.4 µM | 8.33 µM | 25.2 µM | 2.03 µM | 21.6 µM | 11.1 µM | 26 µM | 2.09 µM | 29.3 µM | 16 µM | 30.6 µM | 0.0776 µM | 16 µM | 1.7 µM | 16.9 µM
12 | Cc1cc(N(CCOS(C)(=O)=O)CCOS(C)(=O)=O)ccc1C=Nc1ccc(-c2csc(-c3ccccc3)n2)c(Cl)c1 |  | 27.6 µM |  | 19.8 µM |  | 29.3 µM |  | > 58.9 µM |  | > 61.1 µM |  | 31.6 µM |  | 45.2 µM |  | 32.2 µM |  | 16.8 µM |  | 27.2 µM
